Assays:
[1] = target: T1, human dopamine D3 receptors (Homo sapiens, UniProt P35462); assay: Receptor binding study, dopamine D3 receptor ([125I]-iodosulpride displacement); conditions: membranes of HEK-293 cells, 0.1 nM [125I]-iodosulpride, 25° C., 60 minutes
T1 construct: expressed in transfected cells; host or cells: HEK-293
Experimental: (§1) The substance to be tested was either dissolved in methanol/Chremophor® (BASF SE) or in dimethyl sulfoxide and then diluted with water to the desired concentration.
(§2) Each assay mixture was run in triplicate. • The incubation buffer contained 50 mM tris, 120 mM NaCl, 5 mM KCl, 2 mM CaCl2, 2 mM MgCl2 and 0.1% bovine serum albumin, 10 μM quinolone and 0.1% ascorbic acid (prepared fresh daily). […] Each assay mixture was run in triplicate. • The incubation buffer contained 50 mM tris, 120 mM NaCl, 5 mM KCl, 2 mM CaCl2, 2 mM MgCl2 and 0.1% bovine serum albumin. The buffer was adjusted to pH 7.4 with HCl. c) Measurement and Analysis: • After having been incubated at 25° C. for 60 minutes, the assay mixtures were filtered through a Whatman GF/B glass fiber filter under vacuum using a cell collecting device. The filters were transferred to scintillation viols using a filter transfer system. After 4 ml of Ultima Gold® (Packard) have been added, the samples were shaken for one hour and the radioactivity was then counted in a Beta-Counter (Packard, Tricarb 2000 or 2200CA).

[2] = Determination of the microsomal half-life / microsomal clearance, human; assay type: in vitro ADME; conditions: human liver microsomes, 0.5 μM test substance, 0.25 mg microsomal protein/ml, NADPH, 37° C.
Experimental: (§3) The metabolic stability of the compounds of the invention was determined in the following assay.
(§4) The test substances were incubated in a concentration of 0.5 μM as follows:
(§5) 0.5 μM test substance are preincubated together with liver microsomes from different species (from rat, human or other species) (0.25 mg of microsomal protein/ml) in 0.05 M potassium phosphate buffer of pH 7.4 in microtiter plates at 37° C. for 5 min. The reaction is started by adding NADPH (1 mg/mL). After 0, 5, 10, 15, 20 and 30 min, 50 μl aliquots are removed, and the reaction is immediately stopped and cooled with the same volume of acetonitrile. The samples are frozen until analyzed. The remaining concentration of undegraded test substance is determined by MSMS. The half-life (T½) is determined from the gradient of the signal of test substance/unit time plot, it being possible to calculate the half-life of the test substance, assuming first order kinetics, from the decrease in the concentration of the compound with time. The microsomal clearance (mCl) is calculated from mCl=ln 2/T½/(content of microsomal protein in mg/ml)×1000 [ml/min/mg] (modified from references: Di, The Society for Biomoleculur Screening, 2003, 453-462; Obach, DMD, 1999 vol 27. N 11, 1350-1359).

[3] = target: T2, human dopamine D2L receptors (long isoform) (Homo sapiens, UniProt P14416); assay: Receptor binding study, dopamine D2L receptor ([125I]iodospiperone displacement), selectivity vs D3; conditions: selectivity ratio, HEK-293 membranes
T2 construct: expressed in transfected cells; host or cells: HEK-293
T2 sequence (P14416 whole entry, canonical isoform): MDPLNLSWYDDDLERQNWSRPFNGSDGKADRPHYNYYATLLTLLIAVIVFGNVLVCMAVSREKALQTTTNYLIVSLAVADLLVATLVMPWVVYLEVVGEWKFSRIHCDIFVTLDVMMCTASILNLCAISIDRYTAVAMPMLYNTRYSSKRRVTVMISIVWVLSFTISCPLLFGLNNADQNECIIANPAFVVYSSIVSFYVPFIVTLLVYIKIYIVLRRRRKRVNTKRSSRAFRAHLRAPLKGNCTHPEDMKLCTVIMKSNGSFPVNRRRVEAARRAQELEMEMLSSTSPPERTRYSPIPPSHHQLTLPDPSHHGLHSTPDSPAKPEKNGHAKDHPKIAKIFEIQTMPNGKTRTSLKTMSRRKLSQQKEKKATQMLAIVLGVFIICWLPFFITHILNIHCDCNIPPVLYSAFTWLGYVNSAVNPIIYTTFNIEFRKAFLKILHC
Experimental: as §1, §2

[4] = Determination of the microsomal half-life / microsomal clearance, rat; assay type: in vitro ADME; conditions: rat liver microsomes, 0.5 μM test substance, 0.25 mg microsomal protein/ml, NADPH, 37° C.
Experimental: as §3, §4, §5

T1 sequence (P35462 whole entry): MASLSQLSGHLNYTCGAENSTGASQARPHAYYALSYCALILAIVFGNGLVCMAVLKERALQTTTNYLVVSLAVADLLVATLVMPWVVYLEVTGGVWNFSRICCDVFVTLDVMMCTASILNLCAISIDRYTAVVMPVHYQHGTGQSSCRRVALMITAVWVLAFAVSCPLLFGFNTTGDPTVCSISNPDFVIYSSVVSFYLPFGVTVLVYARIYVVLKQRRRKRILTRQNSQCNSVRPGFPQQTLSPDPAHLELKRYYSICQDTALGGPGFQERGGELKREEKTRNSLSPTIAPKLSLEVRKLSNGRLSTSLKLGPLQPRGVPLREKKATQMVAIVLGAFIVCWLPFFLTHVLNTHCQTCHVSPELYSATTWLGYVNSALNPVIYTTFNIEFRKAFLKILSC

| Ki [1] [nM] | Human mCl [2] | D2/D3 (Ki (D2L)/Ki (D3)) [3] | Rat mCl [4] | Structure (SMILES) |
| --- | --- | --- | --- | --- |
| < 10 | + (+: 20-120 μl min^−1 mg^−1) | +++ (+++>50) | + (+: 20-120 μl min^−1 mg^−1) | CC(=O)N[C@H]1CC[C@H](CCN2CCN(c3cc(CCO)nc(C(C)(C)C)n3)[C@@H](C)C2)CC1 [Compound 25, trans-N-[4-[2-[(3S)-4-[2-tert-butyl-6-(2-hydroxyethyl)pyrimidin-4-yl]-3-methyl-piperazin-1-yl]ethyl]cyclohexyl]acetamide] |
| < 50 | + (+: 20-120 μl min^−1 mg^−1) | + (+>10) | + (+: 20-120 μl min^−1 mg^−1) | COCCc1cc(N2CCN(CCC3CC(NC=O)C3)C[C@@H]2C)nc(C(C)(C)C)n1 (stereo partly drawn) [Compound 28, N-[3-[2-[(3S)-4-[2-tert-butyl-6-(2-methoxyethyl)pyrimidin-4-yl]-3-methyl-piperazin-1-yl]ethyl]cyclobutyl]formamide] |
| < 50 | + (+: 20-120 μl min^−1 mg^−1) | +++ (+++>50) | – | COCCc1cc(N2CCN(CC[C@H]3CC[C@H](NC=O)CC3)C[C@H]2C)nc(C(C)(C)C)n1 [Compound 19, trans-N-[4-[2-[(3R)-4-[2-tert-butyl-6-(2-methoxyethyl)pyrimidin-4-yl]-3-methyl-piperazin-1-yl]ethyl]cyclohexyl]formamide] |
| < 10 | + (+: 20-120 μl min^−1 mg^−1) | + (+>10) | + (+: 20-120 μl min^−1 mg^−1) | COCCc1cc(N2CCN(CC[C@H]3C[C@@H](NC(C)=O)C3)C[C@@H]2C)nc(C(C)(C)C)n1 [Compound 31, cis-N-[3-[2-[(3S)-4-[2-tert-butyl-6-(2-methoxyethyl)pyrimidin-4-yl]-3-methyl-piperazin-1-yl]ethyl]cyclobutyl]acetamide] |
| < 50 | + (+: 20-120 μl min^−1 mg^−1) | +++ (+++>50) | + (+: 20-120 μl min^−1 mg^−1) | COCCc1cc(N2CCN(CC[C@H]3CC[C@H](NC=O)CC3)[C@H](C)C2)nc(C(C)(C)C)n1 [Compound 24, trans-N-[4-[2-[(2R)-4-[2-tert-butyl-6-(2-methoxyethyl)pyrimidin-4-yl]-2-methyl-piperazin-1-yl]ethyl]cyclohexyl]formamide] |
| < 10 | + (+: 20-120 μl min^−1 mg^−1) | +++ (+++>50) | + (+: 20-120 μl min^−1 mg^−1) | COCCc1cc(N2CCN(CC[C@H]3CC[C@H](NC=O)CC3)C[C@@H]2C)nc(C(C)(C)C)n1 [Compound 20, trans-N-[4-[2-[(3S)-4-[2-tert-butyl-6-(2-methoxyethyl)pyrimidin-4-yl]-3-methyl-piperazin-1-yl]ethyl]cyclohexyl]formamide] |
| – | + (+: 20-120 μl min^−1 mg^−1) | – | + (+: 20-120 μl min^−1 mg^−1) | COCCc1cc(N2CCN(CC[C@H]3CC[C@@H](NC(C)=O)CC3)CC2)nc(C(C)(C)C)n1 [Compound 3, cis-N-[4-(2-{4-[2-tert-Butyl-6-(2-methoxy-ethyl)-pyrimidin-4-yl]-piperazin-1-yl}-ethyl)-cyclohexyl]-acetamide] |
| < 50 | + (+: 20-120 μl min^−1 mg^−1) | +++ (+++>50) | + (+: 20-120 μl min^−1 mg^−1) | COCCc1cc(N2CCN(CC[C@@H]3CC[C@H](NC(C)=O)C3)CC2)nc(C(C)(C)C)n1 [Compound 16, cis-N-[(1S,3S)-3-[2-[4-[2-tert-butyl-6-(2-methoxyethyl)pyrimidin-4-yl]piperazin-1-yl]ethyl]cyclopentyl]acetamide] |
| < 10 | + (+: 20-120 μl min^−1 mg^−1) | + (+>10) | ∘ (∘: >120 μl min^−1 mg^−1) | CC(=O)N[C@H]1CC[C@H](CCN2CCN(c3cc(CCOC(F)(F)F)nc(C(C)(C)C)n3)CC2)CC1 [Compound 10b, trans N-[4-(2-{4-[2-tert-Butyl-6-(2-trifluoromethoxy-ethyl)-pyrimidin-4-yl]-piperazin-1-yl}-ethyl)-cyclohexyl]-acetamide] |
| < 50 | + (+: 20-120 μl min^−1 mg^−1) | ++ (++>20) | ∘ (∘: >120 μl min^−1 mg^−1) | COCCc1cc(N2CCN(CC[C@H]3C[C@H](NC=O)C3)CC2)nc(C(C)(C)C)n1 [Compound 18, N-[trans-3-[2-[4-[2-tert-butyl-6-(2-methoxyethyl)pyrimidin-4-yl]piperazin-1-yl]ethyl]cyclobutyl]formamide] |
| < 50 | + (+: 20-120 μl min^−1 mg^−1) | ++ (++>20) | + (+: 20-120 μl min^−1 mg^−1) | COCCc1cc(N2CCN(CC[C@H]3C[C@H](NC(C)=O)C3)C[C@@H]2C)nc(C(C)(C)C)n1 [Compound 30, trans-N-[3-[2-[(3S)-4-[2-tert-butyl-6-(2-methoxyethyl)pyrimidin-4-yl]-3-methyl-piperazin-1-yl]ethyl]cyclobutyl]acetamide] |
| < 50 | + (+: 20-120 μl min^−1 mg^−1) | +++ (+++>50) | + (+: 20-120 μl min^−1 mg^−1) | COCCc1cc(N2CCN(CC[C@H]3CC[C@H](NC(C)=O)CC3)[C@H](C)C2)nc(C(C)(C)C)n1 [Compound 5, trans-N-[4-(2-{(2R)-4-[2-tert-Butyl-6-(2-methoxy-ethyl)-pyrimidin-4-yl]-2-methyl-piperazin-1-yl}-ethyl)-cyclohexyl]-acetamide] |
| < 10 | + (+: 20-120 μl min^−1 mg^−1) | +++ (+++>50) | ∘ (∘: >120 μl min^−1 mg^−1) | CC(=O)N[C@H]1CC[C@H](CCN2CCN(c3cc(CCOC(F)F)nc(C(C)(C)C)n3)[C@@H](C)C2)CC1 [Compound 32, trans-N-[4-[2-[(3S)-4-[2-tert-butyl-6-[2-(difluoromethoxy)ethyl]pyrimidin-4-yl]-3-methyl-piperazin-1-yl]ethyl]cyclohexyl]acetamide] |
| < 10 | + (+: 20-120 μl min^−1 mg^−1) | +++ (+++>50) | + (+: 20-120 μl min^−1 mg^−1) | COCCc1cc(N2CCN(CC[C@H]3CC[C@H](NC(C)=O)C3)CC2)nc(C(C)(C)C)n1 [Compound 15, trans-N-[(1S,3R)-3-[2-[4-[2-tert-butyl-6-(2-methoxyethyl)pyrimidin-4-yl]piperazin-1-yl]ethyl]cyclopentyl]acetamide] |
| – | + (+: 20-120 μl min^−1 mg^−1) | – | + (+: 20-120 μl min^−1 mg^−1) | COCCc1cc(N2CCN(CC[C@H]3C[C@@H](NC(C)=O)C3)CC2)nc(C(C)(C)C)n1.O=C(O)C(F)(F)F [Compound 4a, cis-N-[3-(2-{4-[2-tert-Butyl-6-(2-methoxy-ethyl)-pyrimidin-4-yl]-piperazin-1-yl}-ethyl)-cyclobutyl]-acetamide trifluoroacetate] |
| < 10 | – | ++ (++>20) | – | CC(=O)N[C@H]1CC[C@@H](CCN2CCN(c3cc(CCOC(F)(F)F)nc(C(C)(C)C)n3)CC2)CC1 [Compound 10a, cis N-[4-(2-{4-[2-tert-Butyl-6-(2-trifluoromethoxy-ethyl)-pyrimidin-4-yl]-piperazin-1-yl}-ethyl)-cyclohexyl]-acetamide] |
| – | + (+: 20-120 μl min^−1 mg^−1) | – | + (+: 20-120 μl min^−1 mg^−1) | CC(=O)N[C@H]1CC[C@H](CCN2CCN(c3cc(CCO)nc(C(C)(C)C)n3)C[C@H]2C)CC1 [Compound 26, trans-N-[4-[2-[(2R)-4-[2-tert-butyl-6-(2-hydroxyethyl)pyrimidin-4-yl]-2-methyl-piperazin-1-yl]ethyl]cyclohexyl]acetamide] |
| – | + (+: 20-120 μl min^−1 mg^−1) | – | – | COCc1cc(N2CCN(CC[C@H]3CC[C@H](NC=O)CC3)CC2)nc(C(C)(C)C)n1 [Compound 21, trans-N-[4-[2-[4-[2-tert-butyl-6-(methoxymethyl)pyrimidin-4-yl]piperazin-1-yl]ethyl]cyclohexyl]formamide] |
